Results as given in ChEMBL document CHEMBL3352468, “Synthesis and receptor binding in trans-CD ring-fused A-CD estrogens: comparison with the cis-fused isomers” (Bioorg Med Chem Lett, 2014).

Tests used:
[1] = target: Estrogen receptor beta (Homo sapiens) (UniProt Q92731); assay: Binding affinity to ERbeta (unknown origin) relative to estradiol
[2] = organism: Homo sapiens; assay: Selectivity ratio of RBA for ERbeta (unknown origin) to RBA for ERalpha (unknown origin)

Chain of Estrogen receptor beta (Homo sapiens) (Q92731 whole entry): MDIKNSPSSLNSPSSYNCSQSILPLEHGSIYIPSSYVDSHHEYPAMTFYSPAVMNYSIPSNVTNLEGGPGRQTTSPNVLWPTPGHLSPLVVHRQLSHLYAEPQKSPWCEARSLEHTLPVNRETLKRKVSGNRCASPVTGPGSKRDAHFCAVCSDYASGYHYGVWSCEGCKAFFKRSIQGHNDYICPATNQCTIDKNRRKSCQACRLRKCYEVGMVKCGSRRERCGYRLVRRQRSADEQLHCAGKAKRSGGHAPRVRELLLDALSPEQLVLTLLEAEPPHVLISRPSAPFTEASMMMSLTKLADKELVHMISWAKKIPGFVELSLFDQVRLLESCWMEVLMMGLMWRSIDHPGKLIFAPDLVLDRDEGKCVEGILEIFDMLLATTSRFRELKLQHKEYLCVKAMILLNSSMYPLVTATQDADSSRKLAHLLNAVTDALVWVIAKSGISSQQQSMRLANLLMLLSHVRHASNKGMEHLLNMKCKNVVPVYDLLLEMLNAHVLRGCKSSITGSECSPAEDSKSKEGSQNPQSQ

C[C@]12CC=C(c3ccc(O)cc3)C[C@H]1CC[C@@H]2O
relative binding affinity (RBA) [1]: 6.8
Selectivity ratio [2]: 17

Cc1c([C@H]2CC[C@@]3(C)[C@@H](CC[C@@H]3O)C2)cc(F)c(O)c1F
relative binding affinity (RBA) [1]: 0.226
Selectivity ratio [2]: 2.8

C[C@]12CC[C@H](c3ccc(O)cc3O)C[C@H]1CC[C@@H]2O
relative binding affinity (RBA) [1]: 3.97
Selectivity ratio [2]: 15.3

C[C@]12CC=C(c3ccc(O)cc3C(F)(F)F)C[C@H]1CC[C@@H]2O
relative binding affinity (RBA) [1]: 174
Selectivity ratio [2]: 1.4

C[C@]12CC[C@H](c3ccc(O)c(F)c3F)C[C@H]1CC[C@@H]2O
relative binding affinity (RBA) [1]: 42.8
Selectivity ratio [2]: 9.3

C[C@]12CC=C(c3ccc(O)cc3Cl)C[C@H]1CC[C@@H]2O
relative binding affinity (RBA) [1]: 118
Selectivity ratio [2]: 2

C[C@]12CC[C@H](c3ccc(O)c(F)c3)C[C@H]1CC[C@@H]2O
relative binding affinity (RBA) [1]: 8.7
Selectivity ratio [2]: 8.4

C[C@]12CC[C@H](c3cc(F)c(O)c(F)c3F)C[C@@H]1CC[C@@H]2O
relative binding affinity (RBA) [1]: 0.097
Selectivity ratio [2]: 3.3

C[C@]12CC[C@H](c3ccc(O)cc3O)C[C@@H]1CC[C@@H]2O
relative binding affinity (RBA) [1]: 0.15
Selectivity ratio [2]: 4.1

Cc1cc(O)ccc1[C@H]1CC[C@@]2(C)[C@@H](CC[C@@H]2O)C1
relative binding affinity (RBA) [1]: 1.3
Selectivity ratio [2]: 2.8

C[C@]12CC[C@H](c3ccc(O)c(F)c3F)C[C@@H]1CC[C@@H]2O
relative binding affinity (RBA) [1]: 7.3
Selectivity ratio [2]: 7.9

C[C@]12CC=C(c3ccc(O)cc3F)C[C@H]1CC[C@@H]2O
relative binding affinity (RBA) [1]: 49
Selectivity ratio [2]: 11

COc1cc(O)ccc1[C@H]1CC[C@@]2(C)[C@@H](CC[C@@H]2O)C1
relative binding affinity (RBA) [1]: 0.037
Selectivity ratio [2]: 3.7

C[C@]12CC=C(c3cc(F)c(O)c(F)c3Cl)C[C@H]1CC[C@@H]2O
relative binding affinity (RBA) [1]: 6
Selectivity ratio [2]: 1.8

C[C@]12CC[C@H](c3ccc(O)cc3)C[C@H]1CC[C@@H]2O
relative binding affinity (RBA) [1]: 21.5
Selectivity ratio [2]: 14.6

C[C@]12CC[C@H](c3ccc(O)cc3F)C[C@@H]1CC[C@@H]2O
relative binding affinity (RBA) [1]: 13.6
Selectivity ratio [2]: 3.2

COc1cc(O)ccc1C1=CC[C@@]2(C)[C@H](CC[C@@H]2O)C1
relative binding affinity (RBA) [1]: 0.022
Selectivity ratio [2]: 5.5

C[C@]12CC[C@H](c3cc(F)c(O)c(F)c3F)C[C@H]1CC[C@@H]2O
relative binding affinity (RBA) [1]: 1.73
Selectivity ratio [2]: 9.3

C[C@]12CC=C(c3ccc(O)c(Cl)c3Cl)C[C@H]1CC[C@@H]2O
relative binding affinity (RBA) [1]: 55
Selectivity ratio [2]: 18.3

C[C@]12CC[C@H](c3ccc(O)cc3F)C[C@H]1CC[C@@H]2O
relative binding affinity (RBA) [1]: 136
Selectivity ratio [2]: 5

C[C@]12CC=C(c3cc(F)c(O)cc3F)C[C@H]1CC[C@@H]2O
relative binding affinity (RBA) [1]: 2.7
Selectivity ratio [2]: 6.1

C[C@]12CC=C(c3ccc(O)cc3F)C[C@@H]1CC[C@@H]2O
relative binding affinity (RBA) [1]: 38
Selectivity ratio [2]: 1.7

C[C@]12CC=C(c3ccc(O)c(F)c3Cl)C[C@H]1CC[C@@H]2O
relative binding affinity (RBA) [1]: 149
Selectivity ratio [2]: 3

C[C@]12CC[C@H](c3ccc(O)cc3C(F)(F)F)C[C@@H]1CC[C@@H]2O
relative binding affinity (RBA) [1]: 4.9
Selectivity ratio [2]: 1

C[C@]12CC[C@H](c3ccc(O)c(F)c3)C[C@@H]1CC[C@@H]2O
relative binding affinity (RBA) [1]: 6.84
Selectivity ratio [2]: 4.1

C[C@]12CC=C(c3ccc(O)cc3)C[C@@H]1CC[C@@H]2O
relative binding affinity (RBA) [1]: 17.3
Selectivity ratio [2]: 4.7

C[C@]12CC[C@H](c3ccc(O)cc3)C[C@@H]1CC[C@@H]2O
relative binding affinity (RBA) [1]: 10
Selectivity ratio [2]: 4.2

C[C@]12CC=C(c3ccc(O)cc3Cl)C[C@@H]1CC[C@@H]2O
relative binding affinity (RBA) [1]: 14.1
Selectivity ratio [2]: 1.5

COc1cc(O)ccc1C1=CC[C@@]2(C)[C@@H](CC[C@@H]2O)C1
relative binding affinity (RBA) [1]: 0.029
Selectivity ratio [2]: 4.8

Cc1cc(O)ccc1[C@H]1CC[C@@]2(C)[C@H](CC[C@@H]2O)C1
relative binding affinity (RBA) [1]: 33.6
Selectivity ratio [2]: 11.9

Cc1c([C@H]2CC[C@@]3(C)[C@H](CC[C@@H]3O)C2)cc(F)c(O)c1F
relative binding affinity (RBA) [1]: 5.35
Selectivity ratio [2]: 7.1

C[C@]12CC=C(c3cc(F)c(O)c(F)c3F)C[C@@H]1CC[C@@H]2O
relative binding affinity (RBA) [1]: 0.076
Selectivity ratio [2]: 0.8

COc1cc(O)ccc1[C@H]1CC[C@@]2(C)[C@H](CC[C@@H]2O)C1
relative binding affinity (RBA) [1]: 0.123
Selectivity ratio [2]: 7.7
